From patent US20020111274A1, “1-alkyl-3-[1-(substituted phenyl) benzotriazol-6-yl] uracils” (BASF Aktiengesellschaft, priority 2000, published 2002)

Key:
Parameters in all cases: scale not given here
[1] = system: ZEAMX Corn, Field; experiment: Postemergence herbicidal evaluation, ZEAMX; format: in vivo, Zea mays, L. (Sammel-Bezeichnung); conditions: rate 0.062 kg/ha; rated two - three weeks after treatment
In short: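 Postemergence spray, 40 psi nozzle, on ~2-week seedlings. Carrier: acetone/water 80/20, 1.0% methylated seed oil; dose ~0.006–0.400 kg/ha. Scored visually at 2–3 weeks.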

[2] = system: ABUTH Velvetleaf; experiment: Preemergence herbicidal evaluation, ABUTH; format: in vivo, Abutilon theophrasti, Medic.; conditions: rated four to five weeks after treatment
In short: (§1)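 Seeds mixed with potting soil were planted on about one inch of soil in cups, then sprayed with the test compound in aqueous acetone at roughly 0.013 to 0.800 kg per hectare. Plants were kept under standard greenhouse care and injury was rated four to five weeks after treatment.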

[3] = system: AMBEL Ragweed, Common; experiment: Preemergence herbicidal evaluation, AMBEL; format: in vivo, Ambrosia artemisifolia, L.; conditions: rated four to five weeks after treatment
In short: as §1

[4] = system: CASOB Sicklepod; experiment: Preemergence herbicidal evaluation, CASOB; format: in vivo, Cassia obtusifolia, L.; conditions: rated four to five weeks after treatment
In short: as §1

[5] = system: CHEAL Lambsquarters, Common; experiment: Preemergence herbicidal evaluation, CHEAL; format: in vivo, Chenopodium album, L.; conditions: rated four to five weeks after treatment
In short: as §1

[6] = system: ECHOG Barnyardgrass; experiment: Preemergence herbicidal evaluation, ECHOG; format: in vivo, Echinochloa crus-galli, (L.) Beau; conditions: rated four to five weeks after treatment
In short: as §1

[7] = system: GALAP Galium; experiment: Preemergence herbicidal evaluation, GALAP; format: in vivo, Galium aparine; conditions: rated four to five weeks after treatment
In short: as §1

[8] = system: IPOHE Morningglory, Ivyleaf; experiment: Preemergence herbicidal evaluation, IPOHE; format: in vivo, Ipomoea hederacea, (L.) Jacq.; conditions: rated four to five weeks after treatment
In short: as §1

[9] = system: SETVI Foxtail, Green; experiment: Preemergence herbicidal evaluation, SETVI; format: in vivo, Setaria viridis, (L.) Beau; conditions: rated four to five weeks after treatment
In short: as §1

[10] = system: GLXMAW Soybean, Williams; experiment: Preemergence herbicidal evaluation, GLXMAW; format: in vivo, Glycine max, (L.) Merr. cv Williams; conditions: rated four to five weeks after treatment
In short: as §1

[11] = system: TRZAWR Wheat, Winter, cv Riband; experiment: Preemergence herbicidal evaluation, TRZAWR; format: in vivo, Triticum aestivum; conditions: rated four to five weeks after treatment
In short: as §1

[12] = system: ORYSAT Rice, Tebonnet; experiment: Preemergence herbicidal evaluation, ORYSAT; format: in vivo, Oryza sativa, (L.); conditions: rated four to five weeks after treatment
In short: as §1

[13] = system: ZEAMX Corn, Field; experiment: Preemergence herbicidal evaluation, ZEAMX; format: in vivo, Zea mays, L. (Sammel-Bezeichnung); conditions: rated four to five weeks after treatment
In short: as §1

Structure (SMILES): COC(=O)COc1ccc(-n2nnc3cc(F)c(-n4c(=O)cc(C(F)(F)F)n(C)c4=O)cc32)cc1 [Example 45]
- Postemergence herbicidal rating ZEAMX [1]: 9.0
- Preemergence herbicidal rating, ABUTH ([2]; rate 0.016 kg/ha): 0.0
- Preemergence herbicidal rating, ABUTH ([2]; rate 0.032 kg/ha): 0.0
- Preemergence herbicidal rating, ABUTH ([2]; rate 0.062 kg/ha): 4.0
- Preemergence herbicidal rating, ABUTH ([2]; rate 0.125 kg/ha): 9.0
- Preemergence herbicidal rating, AMBEL ([3]; rate 0.016 kg/ha): 0.0
- Preemergence herbicidal rating, AMBEL ([3]; rate 0.032 kg/ha): 0.0
- Preemergence herbicidal rating, AMBEL ([3]; rate 0.062 kg/ha): 0.0
- Preemergence herbicidal rating, AMBEL ([3]; rate 0.125 kg/ha): 0.0
- Preemergence herbicidal rating, CASOB ([4]; rate 0.016 kg/ha): 0.0
- Preemergence herbicidal rating, CASOB ([4]; rate 0.032 kg/ha): 0.0
- Preemergence herbicidal rating, CASOB ([4]; rate 0.062 kg/ha): 0.0
- Preemergence herbicidal rating, CHEAL ([5]; rate 0.016 kg/ha): 0.0
- Preemergence herbicidal rating, CHEAL ([5]; rate 0.032 kg/ha): 0.0
- Preemergence herbicidal rating, CHEAL ([5]; rate 0.062 kg/ha): 9.0
- Preemergence herbicidal rating, CHEAL ([5]; rate 0.125 kg/ha): 9.0
- Preemergence herbicidal rating, ECHCG ([6]; rate 0.016 kg/ha): 0.0
- Preemergence herbicidal rating, ECHCG ([6]; rate 0.032 kg/ha): 0.0
- Preemergence herbicidal rating, ECHCG ([6]; rate 0.062 kg/ha): 0.0
- Preemergence herbicidal rating, ECHCG ([6]; rate 0.125 kg/ha): 0.0
- Preemergence herbicidal rating, GALAP ([7]; rate 0.016 kg/ha): 0.0
- Preemergence herbicidal rating, GALAP ([7]; rate 0.032 kg/ha): 0.0
- Preemergence herbicidal rating, GALAP ([7]; rate 0.062 kg/ha): 4.0
- Preemergence herbicidal rating, GALAP ([7]; rate 0.125 kg/ha): 4.0
- Preemergence herbicidal rating, IPOHE ([8]; rate 0.016 kg/ha): 0.0
- Preemergence herbicidal rating, IPOHE ([8]; rate 0.032 kg/ha): 0.0
- Preemergence herbicidal rating, IPOHE ([8]; rate 0.062 kg/ha): 0.0
- Preemergence herbicidal rating, IPOHE ([8]; rate 0.125 kg/ha): 4.0
- Preemergence herbicidal rating, SETVI ([9]; rate 0.016 kg/ha): 0.0
- Preemergence herbicidal rating, SETVI ([9]; rate 0.032 kg/ha): 0.0
- Preemergence herbicidal rating, SETVI ([9]; rate 0.062 kg/ha): 9.0
- Preemergence herbicidal rating, SETVI ([9]; rate 0.125 kg/ha): 9.0
- Preemergence herbicidal rating, GLXMAW ([10]; rate 0.016 kg/ha): 0.0
- Preemergence herbicidal rating, GLXMAW ([10]; rate 0.032 kg/ha): 0.0
- Preemergence herbicidal rating, GLXMAW ([10]; rate 0.062 kg/ha): 0.0
- Preemergence herbicidal rating, GLXMAW ([10]; rate 0.125 kg/ha): 1.0
- Preemergence herbicidal rating, TRZAWR ([11]; rate 0.016 kg/ha): 0.0
- Preemergence herbicidal rating, TRZAWR ([11]; rate 0.032 kg/ha): 0.0
- Preemergence herbicidal rating, TRZAWR ([11]; rate 0.062 kg/ha): 0.0
- Preemergence herbicidal rating, TRZAWR ([11]; rate 0.125 kg/ha): 1.0
- Preemergence herbicidal rating, ORYSAT ([12]; rate 0.016 kg/ha): 0.0
- Preemergence herbicidal rating, ORYSAT ([12]; rate 0.032 kg/ha): 0.0
- Preemergence herbicidal rating, ORYSAT ([12]; rate 0.062 kg/ha): 0.0
- Preemergence herbicidal rating, ORYSAT ([12]; rate 0.125 kg/ha): 5.0
- Preemergence herbicidal rating, ZEAMX ([13]; rate 0.016 kg/ha): 0.0
- Preemergence herbicidal rating, ZEAMX ([13]; rate 0.032 kg/ha): 0.0
- Preemergence herbicidal rating, ZEAMX ([13]; rate 0.062 kg/ha): 0.0
- Preemergence herbicidal rating, ZEAMX ([13]; rate 0.125 kg/ha): 0.0
